Entries after “also recorded” stand apart in the source; their conditions may differ.
Columns and labels:
[1] = tested on: ERK1/2 nuclear translocation; assay: Determination of ERK1/2 localization by fluorescence microscopy after TPA stimulation; assay type: cell-based; details: for inhibition of stimulated ERK1/2 nuclear translocation: 1 μM, 2 h
Protocol: Determination of Protein Localization by Fluorescence Microscopy:
Indicated cells were seeded on coverslips (coated with 0.001% w/v poly-L-lysine or not, depending on the cell line) at 50% confluency. After the indicated treatment, cells were fixed in 4% paraformaldehyde/PBS for 20 minutes on an ice surface, permeabilized with 0.1% Triton X-100/PBS for 5 minutes at 23° C., then blocked in 2% BSA/PBS for 30 minutes at 23° C. The fixed cells were sequentially incubated with appropriate antibodies (in 2% BSA/PBS, 1.5 hour), washed 3 times with PBS^−/−, and followed by incubation with either Cy-2-conjugated or rhodamine-conjugated secondary antibodies (1:200) and with DAPI ([…]; 1:100) in 2% BSA/PBS for 45 minutes. Slides were analyzed and photographed by a fluorescence microscope (Olympus BX51, ×40). Background correction, and contrast adjustment of raw data images were performed using Photoshop (Adobe, CA, USA).
The effect of Z56 was compared with that of the inhibitory effect of EPE peptide on nuclear translocation of ERK1/2.
The effects of the compounds on ERK1/2 nuclear translocation were evaluated in three cell lines (HeLa cells and two melanoma cell lines, A2185 and A2352), by treating the cells with each compound for two hours, and determining nuclear translocation using fluorescent anti-ERK antibodies, according to procedures described hereinabove.

A2185 and A2352 cells = assay: Viability assay (methylene blue), two BRAF melanoma cells; assay type: cell-based; details: for cytotoxicity at 1 µM: both melanoma cell lines, read-out: reduction of viability
Protocol: FIGS. 10A, 10B and 10C present data from screening the 20 analogs of Compound Z2 (“C-compounds”) showing three particularly active anti-proliferative compounds. […] A2185 and A2352 cells were grown in 1% FCS containing DMSO (0.1%), EPE peptide, Compound Z56, Compound Z2 or C-compounds (10 μM), for 72 hours. Compounds were categorized according to activity: (1) active, below 40%; (2) moderate activity, below 80%; (3) not active, above 80%. […] A2185 and A2352 cells were grown in 1% FCS containing DMSO (0.1%), EPE peptide (10 μM), compounds Z56, Z2 or selected C-compounds (3 μM), for 72 hours. Empty squares/circles represent individual data points of proliferation. Full squares/circles indicate average proliferation of 2 independent experiments in triplicate±SE. Bold horizontal line defines arbitrary activity threshold of activity below 40%. FIG. 10C presents dose response curves of active C-compounds compounds. A2185 and A2352 were grown in 1% FCS media containing DMSO (0.1%), EPE peptide, Z56, Z2 (10 μM) or compounds C17, C22 and C23 (0.1-10 μM), for 72 hours. […] Cell viability was measured by staining with methylene blue. Data presented as percentage of DMSO control. Bar graphs represent average of 2 independent experiments done in triplicates ±SE.
FIG. 13 presents a graph showing the effect of analogs of Compound C17 (“D-compounds”) on cell viability at a concentration of 10 μM. A2185 and A2352 cells were grown in 1% FCS media containing DMSO (0.1%) EPE peptide (10 μM), Compounds Z56, Z2, C17 (10 μM) as controls, and D-Compounds (10 μM), for 72 hours. Viable cells were measured by staining with methylene blue. Bar graphs represent average of 2 independent experiments done in triplicates. Data presented as percentage of DMSO proliferation ±standard error.
FIG. 14 presents a graph showing the effect of analogs of Compound C17 (“D-compounds”) on cell viability at a concentration of 1 μM. A2185 and A2352 cells were grown in 1% FCS media containing DMSO (0.1%), EPE peptide (10 μM), Compounds Z56, Z2 and C17 (1 and 10 μM) as controls, and D-compounds (1 μM), for 72 hours. Viable cells were measured by staining with methylene blue. Bar graphs represent average of 2 independent experiments done in triplicates. Data presented as percentage of DMSO proliferation ±standard error.
Cells were seeded at low confluence into 24, 48 or 96-well plates in complete medium. After 24 hours, medium was replaced by 1% FCS (fetal calf serum) containing appropriate treatments. Fresh medium containing the same agents was replaced every day. After 72 or 96 hours of treatment, cells were fixed with 4% formaldehyde overnight at 23° C., washed once with 0.1 M borate buffer (pH 8.5) for 10 minutes, and stained with of 1% methylene blue in 0.1 M borate buffer (pH 8.5) for 30 minutes. Excess stain was washed out with distilled water. Color was extracted by adding 0.1 M HCl (3 hours, 23° C.), and absorbance measured at 595 nm in an ELISA reader. For time course experiments, attached cells were fixed and measured at 0, 24, 48, 72 and 96 hours. For dose-response experiments, cells were treated with indicated concentrations of reagent, fixed and stained after 72 hours as above.
The ability of the selected compounds to reduce cell viability of two BRAF melanoma cells (A2185 and A2352) was evaluated. Initially, all compounds were assayed at a relatively high concentration of 10 μM.

[2] = tested on: A2185, A2352, A2024, A2058, LOX-IMVI, HeLa, HCT-116 and PC3 cells; assay: Dose-response analysis (IC50 assay) in eight cancer cell lines; assay type: cell-based; details: for potency in reducing cell viability relative to Compound C17 / potency in reducing cell viability relative to Compound D14: 72 hours; for potency in reducing cell viability relative to Compound C17: in six of the eight tested cell lines; for potency in reducing cell viability relative to Compound D14: in seven of the eight cell lines
Protocol: (§1) FIG. 15A presents dose response curves of compounds C17, D3, D11 and D14 on 8 cancer cells. Five melanoma cell lines (A2185, A2352, A2024, A2058 and LOX-IMVI), HeLa, HCT-116 and PC3 cells were grown in 1% FCS media containing either DMSO (0.1%), EPE peptide (10 μM), or Compounds C17, D3, D11, D14 at the indicated concentrations, for 72 hours. Viable cells were quantified by staining with methylene blue. Data presented as percentage of DMSO control ±SE of triplicates. […] IC50 values were calculated by interpolation in the curves in FIG. 15A. […] Bar graphs represent average viability respect to DMSO control ±SE of triplicates.
Cell Viability (IC50) Assay: […]

PC3 cells = assay: Dose-response analysis, PC3 cells; assay type: cell-based; details: dose response, 72 hours
Protocol: as §1
(§2) Cell Viability (IC50) Assay:
(§3) Cells were seeded at a density of 4000 cells per well into 96-well plates in complete medium. After 24 hours, medium was replaced by 1% FCS (fetal calf serum) containing appropriate treatments. Fresh medium containing the same agents was replaced every day. After 96 hours, cell viability was assessed using the CellTiter-Glo reagent (Promega; Madison, WI). IC50 values were determined using GraphPad Prism.

[3] = tested on: melanoma cells (A2185, A2352, A2024, A2058 and LOX-IMVI); assay: Dose-response analysis (IC50 assay), melanoma cells; assay type: cell-based; details: calculated by interpolation in the dose response curves
Protocol: as §1, §2, §3

A2058 cells = assay: Dose-response analysis, A2058 cells; assay type: cell-based; details: dose response, 72 hours
Protocol: as §1, §2, §3

LOX-IMVI melanoma cells = assay: Dose-response analysis (IC50), LOX-IMVI cells; assay type: cell-based; details: Homo sapiens
Protocol: as §1, §2, §3

[4] = tested on: anti-tubercular activity (unknown mechanism); details: Ananthan et al., Tuberculosis (Edinb) 2009; cited from earlier work
mammalian cells = details: Ananthan et al., Tuberculosis (Edinb) 2009; cited from earlier work
[5] = TPA 100 nM, 15 minutes, A2185 cells

| IC50 [3] | Structure (SMILES) | inhibition of stimulated ERK1/2 nuclear translocation [1, 5] | cytotoxicity at 1 µM (A2185 and A2352 cells; 72 hours, 1% FCS) | potency in reducing cell viability relative to Compound C17 [2] | IC50 values compared to Compound C17 ([2]; eight cancer cell lines) | selectivity (pattern of effect across cell types compared with EPE peptide) ([2]; eight cancer cell lines) | viability of PC3 cells (PC3 cells) | potency in reducing cell viability relative to Compound D14 [2] | reducing the viability of A2058 cells (A2058 cells) | relative potency in blocking nuclear accumulation of ERK1/2 ([1]; 10 μM, 2 hours, A2185 cells) | nuclear accumulation of ERK1/2 upon TPA stimulation ([1]; 10 μM, 2 hours, TPA 100 nM, 15 minutes, A2185 and A2352 cells) | cell viability at lower concentration (A2185 and A2352 cells; 3 μM, 72 hours, 1% FCS) | viability at 10 µM (A2185 and A2352 cells; 10 μM, 72 hours, 1% FCS, active below 40%, moderate below 80%, not active above 80%, read-out: cell viability (percentage of DMSO control)) | cell viability, dose response (A2185 and A2352 cells; 0.1-10 μM, 72 hours, 1% FCS) | activity in SAR summary of FIGS. 10A-10C (cell viability) (A2185 and A2352 cells; comparison with Compound Z2 or named analog) | concentration at which activity is already exhibited (A2185 and A2352 cells; dose response 0.1-10 μM, 72 hours) | IC50 (A2185 and A2352 cells; potency summarised from viability results of Example 6) | IC50 (LOX-IMVI melanoma cells) | anti-tubercular activity in high-throughput screening [4] | cytotoxic activity in mammalian cells (mammalian cells) |
| --- | --- | --- | --- | --- | --- | --- | --- | --- | --- | --- | --- | --- | --- | --- | --- | --- | --- | --- | --- | --- |
| – | O=S1(=O)C=CC2ON=C(c3c[nH]c4ccccc34)C21 (centres unmarked) [Compound D14] | convincing activity | ≤ 90% | significantly more potency than Compound C17 | significantly lower IC50 values compared to Compound C17 | less selective | significantly decreased | – | – | – | – | – | – | – | – | – | – | – | – | – |
| 40 to 250 nM | O=S1(=O)C=CC2ON=C(c3ccc(Cl)c(Cl)c3)C21 (centres unmarked) [Compound D11] | convincing activity | ≤ 90% | significantly more potency than Compound C17 | – | more selective than Compounds C17 and D14 | did not | slightly more potency than Compound D14 | strong effect | – | – | – | – | – | – | – | – | – | – | – |
| 40 to 250 nM | O=S1(=O)C=CC2ON=C(c3cc(Cl)cc(Cl)c3)C21 (centres unmarked) [Compound D3] | convincing activity; also recorded: most potent of the three tested compounds | ≤ 90% | significantly more potency than Compound C17 | – | more selective than Compounds C17 and D14 | did not | slightly more potency than Compound D14 | strong effect | – | – | – | – | – | – | – | – | – | – | – |

| Structure (SMILES) | IC50 [3] | inhibition of stimulated ERK1/2 nuclear translocation [1, 5] | cytotoxicity at 1 µM (A2185 and A2352 cells; 72 hours, 1% FCS) | potency in reducing cell viability relative to Compound C17 [2] | IC50 values compared to Compound C17 ([2]; eight cancer cell lines) | selectivity (pattern of effect across cell types compared with EPE peptide) ([2]; eight cancer cell lines) | viability of PC3 cells (PC3 cells) | potency in reducing cell viability relative to Compound D14 [2] | reducing the viability of A2058 cells (A2058 cells) | relative potency in blocking nuclear accumulation of ERK1/2 ([1]; 10 μM, 2 hours, A2185 cells) | nuclear accumulation of ERK1/2 upon TPA stimulation ([1]; 10 μM, 2 hours, TPA 100 nM, 15 minutes, A2185 and A2352 cells) | cell viability at lower concentration (A2185 and A2352 cells; 3 μM, 72 hours, 1% FCS) | viability at 10 µM (A2185 and A2352 cells; 10 μM, 72 hours, 1% FCS, active below 40%, moderate below 80%, not active above 80%, read-out: cell viability (percentage of DMSO control)) | cell viability, dose response (A2185 and A2352 cells; 0.1-10 μM, 72 hours, 1% FCS) | activity in SAR summary of FIGS. 10A-10C (cell viability) (A2185 and A2352 cells; comparison with Compound Z2 or named analog) | concentration at which activity is already exhibited (A2185 and A2352 cells; dose response 0.1-10 μM, 72 hours) | IC50 (A2185 and A2352 cells; potency summarised from viability results of Example 6) | IC50 (LOX-IMVI melanoma cells) | anti-tubercular activity in high-throughput screening [4] | cytotoxic activity in mammalian cells (mammalian cells) |
| --- | --- | --- | --- | --- | --- | --- | --- | --- | --- | --- | --- | --- | --- | --- | --- | --- | --- | --- | --- | --- |
| O=S1(=O)C=CC2ON=C(c3ccc(C(F)(F)F)cc3)C21 (centres unmarked) [Compound C17] | 400 to 1300 nM | – | – | – | – | – | significantly decreased | – | – | more potent than Compounds C22 and C23 | inhibited | consistently strong anti-viability effect | < 40% | dose dependent manner; also recorded: as potent in reducing the viability of A2352 cells | surprisingly superior to the ester group of Compound Z2 | 0.3 µM | ~1000 nM | ~20 nM | hit | without presenting cytotoxic activity |
